Data from ChEMBL document CHEMBL4507297, “Data for DCP probe PF-04457845” (2021).

What was measured:
[1] = biological target: Mitogen-activated protein kinase 4 (Homo sapiens) (UniProt P31152); conditions: Compound concentration 1000.0 nM
[2] = biological target: Tyrosine-protein kinase JAK2 (Homo sapiens) (UniProt O60674); conditions: Compound concentration 1000.0 nM
[3] = biological target: Serine/threonine-protein kinase N2 (Homo sapiens) (UniProt Q16513); conditions: Compound concentration 1000.0 nM
[4] = biological target: Receptor-type tyrosine-protein kinase FLT3 (Homo sapiens) (UniProt P36888); conditions: Compound concentration 1000.0 nM
[5] = biological target: Serine/threonine-protein kinase PAK 3 (Homo sapiens) (UniProt O75914); conditions: Compound concentration 1000.0 nM
Chain of Serine/threonine-protein kinase PAK 3 (Homo sapiens) (O75914 whole entry, looked up): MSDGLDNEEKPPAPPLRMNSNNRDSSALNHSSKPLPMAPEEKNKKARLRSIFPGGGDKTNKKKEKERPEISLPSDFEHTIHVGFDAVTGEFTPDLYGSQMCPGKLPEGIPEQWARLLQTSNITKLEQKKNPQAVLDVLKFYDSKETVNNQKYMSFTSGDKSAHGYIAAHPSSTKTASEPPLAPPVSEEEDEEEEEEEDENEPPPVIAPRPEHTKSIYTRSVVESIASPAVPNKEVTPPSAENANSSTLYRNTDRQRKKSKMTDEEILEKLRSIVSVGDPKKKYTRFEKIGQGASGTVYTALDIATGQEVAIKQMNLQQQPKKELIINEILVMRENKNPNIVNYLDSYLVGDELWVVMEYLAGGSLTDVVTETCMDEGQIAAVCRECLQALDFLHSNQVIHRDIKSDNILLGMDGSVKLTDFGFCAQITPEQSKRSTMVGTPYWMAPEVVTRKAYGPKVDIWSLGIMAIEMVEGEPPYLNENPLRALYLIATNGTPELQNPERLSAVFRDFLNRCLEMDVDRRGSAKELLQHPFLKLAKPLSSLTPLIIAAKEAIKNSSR

[6] = biological target: Serine/threonine-protein kinase PAK 1 (Homo sapiens) (UniProt Q13153); conditions: Compound concentration 1000.0 nM
[7] = biological target: Ribosomal protein S6 kinase beta-1 (Homo sapiens) (UniProt P23443); conditions: Compound concentration 1000.0 nM
Chain of Ribosomal protein S6 kinase beta-1 (Homo sapiens) (P23443 whole entry, looked up): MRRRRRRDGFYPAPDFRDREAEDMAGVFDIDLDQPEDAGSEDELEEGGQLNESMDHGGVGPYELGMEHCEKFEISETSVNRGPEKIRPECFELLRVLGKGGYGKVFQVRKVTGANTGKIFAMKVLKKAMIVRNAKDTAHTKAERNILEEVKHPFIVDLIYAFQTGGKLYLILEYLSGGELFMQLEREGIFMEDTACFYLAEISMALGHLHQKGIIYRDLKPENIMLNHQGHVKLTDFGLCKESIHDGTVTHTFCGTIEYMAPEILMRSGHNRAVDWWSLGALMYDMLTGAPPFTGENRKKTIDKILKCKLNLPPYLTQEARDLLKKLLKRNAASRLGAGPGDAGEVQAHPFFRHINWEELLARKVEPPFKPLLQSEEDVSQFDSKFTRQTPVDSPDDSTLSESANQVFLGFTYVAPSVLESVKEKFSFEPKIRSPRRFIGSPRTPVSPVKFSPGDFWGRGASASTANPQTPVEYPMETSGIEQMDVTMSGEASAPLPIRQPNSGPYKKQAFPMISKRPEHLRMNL

[8] = biological target: Serine/threonine-protein kinase Nek6 (Homo sapiens) (UniProt Q9HC98); conditions: Compound concentration 1000.0 nM
[9] = biological target: Mitogen-activated protein kinase kinase kinase 5 (Homo sapiens) (UniProt Q99683); conditions: Compound concentration 1000.0 nM
[10] = test system: Tyrosine-protein kinase ABL1 (Homo sapiens), P00519 [Y253F]; conditions: Compound concentration 1000.0 nM
[11] = biological target: Serine/threonine-protein kinase Nek5 (Homo sapiens) (UniProt Q6P3R8); conditions: Compound concentration 1000.0 nM
[12] = biological target: Tyrosine-protein kinase Srms (Homo sapiens) (UniProt Q9H3Y6); conditions: Compound concentration 1000.0 nM
Chain of Tyrosine-protein kinase Srms (Homo sapiens) (Q9H3Y6 whole entry): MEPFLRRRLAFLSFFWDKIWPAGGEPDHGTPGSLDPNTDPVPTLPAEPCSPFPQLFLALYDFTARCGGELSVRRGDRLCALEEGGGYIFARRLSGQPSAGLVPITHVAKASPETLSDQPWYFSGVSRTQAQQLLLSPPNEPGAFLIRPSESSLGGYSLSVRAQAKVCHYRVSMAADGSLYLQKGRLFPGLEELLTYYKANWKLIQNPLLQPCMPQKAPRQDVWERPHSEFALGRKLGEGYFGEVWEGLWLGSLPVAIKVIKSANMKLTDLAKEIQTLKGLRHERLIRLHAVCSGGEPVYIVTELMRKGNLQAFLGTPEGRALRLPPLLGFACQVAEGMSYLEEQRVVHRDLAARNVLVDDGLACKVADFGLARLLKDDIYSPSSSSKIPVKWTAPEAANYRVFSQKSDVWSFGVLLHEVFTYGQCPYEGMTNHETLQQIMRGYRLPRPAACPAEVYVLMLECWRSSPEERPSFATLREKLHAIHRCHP

[13] = test system: Proto-oncogene tyrosine-protein kinase receptor Ret (Homo sapiens), P07949 [V804L]; conditions: Compound concentration 1000.0 nM
[14] = biological target: Mitogen-activated protein kinase 3 (Homo sapiens) (UniProt P27361); conditions: Compound concentration 1000.0 nM
Chain of Mitogen-activated protein kinase 3 (Homo sapiens) (P27361 whole entry): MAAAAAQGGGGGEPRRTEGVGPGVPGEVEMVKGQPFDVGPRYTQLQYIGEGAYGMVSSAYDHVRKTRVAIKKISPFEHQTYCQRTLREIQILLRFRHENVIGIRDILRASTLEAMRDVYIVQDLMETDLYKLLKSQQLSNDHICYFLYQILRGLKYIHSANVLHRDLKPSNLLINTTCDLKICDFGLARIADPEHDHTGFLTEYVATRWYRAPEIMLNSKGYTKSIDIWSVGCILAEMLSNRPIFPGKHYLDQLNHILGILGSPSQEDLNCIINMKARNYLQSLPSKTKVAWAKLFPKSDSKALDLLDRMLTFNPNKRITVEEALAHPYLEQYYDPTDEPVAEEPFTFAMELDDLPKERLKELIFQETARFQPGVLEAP

[15] = biological target: Mitogen-activated protein kinase kinase kinase 14 (Homo sapiens) (UniProt Q99558); conditions: Compound concentration 1000.0 nM
[16] = biological target: TGF-beta receptor type-2 (Homo sapiens) (UniProt P37173); conditions: Compound concentration 1000.0 nM
[17] = biological target: Protein-tyrosine kinase 2-beta (Homo sapiens) (UniProt Q14289); conditions: Compound concentration 1000.0 nM
[18] = biological target: Fibroblast growth factor receptor 4 (Homo sapiens) (UniProt P22455); conditions: Compound concentration 1000.0 nM
[19] = biological target: Angiopoietin-1 receptor (Homo sapiens) (UniProt Q02763); conditions: Compound concentration 1000.0 nM
[20] = biological target: RAC-beta serine/threonine-protein kinase (Homo sapiens) (UniProt P31751); conditions: Compound concentration 1000.0 nM
[21] = biological target: Mitogen-activated protein kinase 6 (Homo sapiens) (UniProt Q16659); conditions: Compound concentration 1000.0 nM
[22] = biological target: G protein-coupled receptor kinase 4 (Homo sapiens) (UniProt P32298); conditions: Compound concentration 1000.0 nM
Chain of G protein-coupled receptor kinase 4 (Homo sapiens) (P32298 whole entry, looked up): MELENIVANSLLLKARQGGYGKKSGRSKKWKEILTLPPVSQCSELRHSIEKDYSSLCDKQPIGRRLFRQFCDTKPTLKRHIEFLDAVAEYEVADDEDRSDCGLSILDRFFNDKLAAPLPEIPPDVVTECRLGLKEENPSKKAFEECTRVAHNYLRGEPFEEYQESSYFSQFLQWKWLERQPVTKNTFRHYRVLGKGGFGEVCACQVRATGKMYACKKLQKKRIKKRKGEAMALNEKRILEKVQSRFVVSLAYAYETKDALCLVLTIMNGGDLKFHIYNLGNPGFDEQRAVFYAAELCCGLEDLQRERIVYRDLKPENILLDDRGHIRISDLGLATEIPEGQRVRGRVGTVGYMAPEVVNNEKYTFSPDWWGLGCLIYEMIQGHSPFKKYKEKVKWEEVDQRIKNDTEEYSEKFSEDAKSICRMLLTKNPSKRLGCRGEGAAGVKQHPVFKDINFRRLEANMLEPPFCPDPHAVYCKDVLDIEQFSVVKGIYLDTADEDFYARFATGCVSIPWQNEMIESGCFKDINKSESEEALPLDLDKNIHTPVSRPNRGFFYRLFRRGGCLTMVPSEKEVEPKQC

[23] = biological target: 5-hydroxytryptamine receptor 7 (Homo sapiens) (UniProt P34969); conditions: Compound concentration 10.0 uM
Chain of 5-hydroxytryptamine receptor 7 (Homo sapiens) (P34969 whole entry): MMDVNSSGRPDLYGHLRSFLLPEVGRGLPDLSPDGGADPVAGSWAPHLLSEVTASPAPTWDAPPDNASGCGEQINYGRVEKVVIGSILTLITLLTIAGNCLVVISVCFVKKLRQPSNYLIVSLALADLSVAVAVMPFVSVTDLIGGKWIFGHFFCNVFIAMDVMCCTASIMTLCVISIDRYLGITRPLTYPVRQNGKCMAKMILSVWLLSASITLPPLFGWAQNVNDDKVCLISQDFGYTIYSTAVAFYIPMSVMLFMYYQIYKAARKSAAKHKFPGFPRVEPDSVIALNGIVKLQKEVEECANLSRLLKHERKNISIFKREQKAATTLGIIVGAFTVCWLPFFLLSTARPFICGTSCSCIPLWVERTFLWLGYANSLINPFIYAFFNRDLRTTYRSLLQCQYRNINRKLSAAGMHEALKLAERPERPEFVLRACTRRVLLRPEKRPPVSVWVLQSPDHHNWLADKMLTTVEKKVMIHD

[24] = biological target: Protein-tyrosine kinase 6 (Homo sapiens) (UniProt Q13882); conditions: Compound concentration 1000.0 nM
[25] = biological target: Serine/threonine-protein kinase DCLK1 (Homo sapiens) (UniProt O15075); conditions: Compound concentration 1000.0 nM
[26] = biological target: Casein kinase I isoform alpha-like (Homo sapiens) (UniProt Q8N752); conditions: Compound concentration 1000.0 nM
[27] = biological target: Serine/threonine-protein kinase Sgk2 (Homo sapiens) (UniProt Q9HBY8); conditions: Compound concentration 1000.0 nM
[28] = biological target: Non-receptor tyrosine-protein kinase TYK2 (Homo sapiens) (UniProt P29597); conditions: Compound concentration 1000.0 nM
[29] = biological target: Serine/threonine-protein kinase Sgk3 (Homo sapiens) (UniProt Q96BR1); conditions: Compound concentration 1000.0 nM
Chain of Serine/threonine-protein kinase Sgk3 (Homo sapiens) (Q96BR1 whole entry): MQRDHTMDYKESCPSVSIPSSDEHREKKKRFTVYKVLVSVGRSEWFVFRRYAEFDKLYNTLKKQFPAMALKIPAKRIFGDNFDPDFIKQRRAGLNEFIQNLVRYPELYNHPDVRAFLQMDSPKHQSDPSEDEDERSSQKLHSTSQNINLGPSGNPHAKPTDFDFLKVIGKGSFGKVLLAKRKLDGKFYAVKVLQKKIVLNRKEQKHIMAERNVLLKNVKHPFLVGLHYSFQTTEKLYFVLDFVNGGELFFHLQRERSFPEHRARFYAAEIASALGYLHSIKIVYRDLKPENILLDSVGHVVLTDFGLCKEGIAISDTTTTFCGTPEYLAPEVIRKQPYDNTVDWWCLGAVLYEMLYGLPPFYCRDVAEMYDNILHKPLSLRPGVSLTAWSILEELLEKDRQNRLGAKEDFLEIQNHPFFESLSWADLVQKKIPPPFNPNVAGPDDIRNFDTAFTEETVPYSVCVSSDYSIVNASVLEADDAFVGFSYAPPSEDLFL

[30] = biological target: Serine/threonine-protein kinase Nek1 (Homo sapiens) (UniProt Q96PY6); conditions: Compound concentration 1000.0 nM
[31] = biological target: Cyclin-dependent kinase 2 (Homo sapiens) (UniProt P24941); conditions: Compound concentration 1000.0 nM
[32] = biological target: Serine/threonine-protein kinase BRSK2 (Homo sapiens) (UniProt Q8IWQ3); conditions: Compound concentration 1000.0 nM
Chain of Serine/threonine-protein kinase BRSK2 (Homo sapiens) (Q8IWQ3 whole entry): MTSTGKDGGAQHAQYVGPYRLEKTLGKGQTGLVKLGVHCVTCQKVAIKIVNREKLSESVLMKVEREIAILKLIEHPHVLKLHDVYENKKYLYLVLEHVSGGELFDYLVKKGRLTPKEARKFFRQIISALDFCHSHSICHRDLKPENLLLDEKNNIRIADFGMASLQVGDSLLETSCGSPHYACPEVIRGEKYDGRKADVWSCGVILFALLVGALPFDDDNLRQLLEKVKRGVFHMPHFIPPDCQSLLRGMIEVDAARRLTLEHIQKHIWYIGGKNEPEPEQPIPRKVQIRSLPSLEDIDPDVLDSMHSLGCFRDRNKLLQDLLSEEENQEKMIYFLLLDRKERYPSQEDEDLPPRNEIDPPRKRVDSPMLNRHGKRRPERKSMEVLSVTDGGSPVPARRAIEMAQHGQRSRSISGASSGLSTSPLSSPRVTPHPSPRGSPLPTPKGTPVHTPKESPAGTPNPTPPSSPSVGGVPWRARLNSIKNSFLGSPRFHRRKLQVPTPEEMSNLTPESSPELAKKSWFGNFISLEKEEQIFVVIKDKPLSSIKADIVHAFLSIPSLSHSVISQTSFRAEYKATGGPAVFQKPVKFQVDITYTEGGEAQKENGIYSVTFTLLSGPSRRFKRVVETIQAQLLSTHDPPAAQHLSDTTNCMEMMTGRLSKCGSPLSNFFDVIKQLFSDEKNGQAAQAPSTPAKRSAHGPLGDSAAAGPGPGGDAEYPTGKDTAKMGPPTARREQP

[33] = biological target: Mitogen-activated protein kinase kinase kinase 19 (Homo sapiens) (UniProt Q56UN5); conditions: Compound concentration 1000.0 nM
[34] = biological target: Dual specificity tyrosine-phosphorylation-regulated kinase 2 (Homo sapiens) (UniProt Q92630); conditions: Compound concentration 1000.0 nM
Chain of Dual specificity tyrosine-phosphorylation-regulated kinase 2 (Homo sapiens) (Q92630 whole entry): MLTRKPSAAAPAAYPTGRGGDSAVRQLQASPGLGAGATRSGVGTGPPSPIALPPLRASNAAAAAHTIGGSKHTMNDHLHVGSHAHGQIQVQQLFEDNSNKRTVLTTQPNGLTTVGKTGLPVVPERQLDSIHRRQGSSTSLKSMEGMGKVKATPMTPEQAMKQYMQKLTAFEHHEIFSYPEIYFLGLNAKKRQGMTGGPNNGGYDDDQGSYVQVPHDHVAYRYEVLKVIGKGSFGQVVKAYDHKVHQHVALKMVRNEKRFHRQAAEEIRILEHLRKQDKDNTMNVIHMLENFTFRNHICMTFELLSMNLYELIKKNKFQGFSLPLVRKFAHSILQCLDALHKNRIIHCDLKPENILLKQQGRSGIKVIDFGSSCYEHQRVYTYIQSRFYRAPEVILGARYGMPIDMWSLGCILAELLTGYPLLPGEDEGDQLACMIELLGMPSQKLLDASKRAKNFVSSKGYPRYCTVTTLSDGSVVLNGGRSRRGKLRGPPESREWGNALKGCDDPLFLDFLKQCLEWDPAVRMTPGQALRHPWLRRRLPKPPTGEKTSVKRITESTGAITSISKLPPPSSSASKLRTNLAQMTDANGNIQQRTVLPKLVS

[35] = biological target: D(1B) dopamine receptor (Homo sapiens) (UniProt P21918); conditions: Compound concentration 10.0 uM
[36] = biological target: Cyclin-dependent kinase 15 (Homo sapiens) (UniProt Q96Q40); conditions: Compound concentration 1000.0 nM
[37] = biological target: Ribosomal protein S6 kinase alpha-2 (Homo sapiens) (UniProt Q15349); conditions: Compound concentration 1000.0 nM
[38] = biological target: Macrophage-stimulating protein receptor (Homo sapiens) (UniProt Q04912); conditions: Compound concentration 1000.0 nM
[39] = biological target: SRSF protein kinase 2 (Homo sapiens) (UniProt P78362); conditions: Compound concentration 1000.0 nM
[40] = biological target: Activated CDC42 kinase 1 (Homo sapiens) (UniProt Q07912); conditions: Compound concentration 1000.0 nM
[41] = biological target: Phosphatidylinositol 4-phosphate 5-kinase type-1 alpha (Homo sapiens) (UniProt Q99755); conditions: Compound concentration 1000.0 nM
[42] = biological target: Serine/threonine-protein kinase Nek10 (Homo sapiens) (UniProt Q6ZWH5); conditions: Compound concentration 1000.0 nM
[43] = biological target: Ephrin type-A receptor 3 (Homo sapiens) (UniProt P29320); conditions: Compound concentration 1000.0 nM
[44] = biological target: Microtubule-associated serine/threonine-protein kinase 1 (Homo sapiens) (UniProt Q9Y2H9); conditions: Compound concentration 1000.0 nM
[45] = biological target: STE20-like serine/threonine-protein kinase (Homo sapiens) (UniProt Q9H2G2); conditions: Compound concentration 1000.0 nM

O=C(Nc1cccnn1)N1CCC(=Cc2cccc(Oc3ccc(C(F)(F)F)cn3)c2)CC1
inactive: residual activity [1] 95% | residual activity [2] 100% | residual activity [3] 100% | residual activity [4] 97% | residual activity [5] 73% | residual activity [6] 72% | residual activity [7] 100% | residual activity [8] 100% | residual activity [9] 100% | residual activity [10] 100% | residual activity [11] 97% | residual activity [12] 95% | residual activity [13] 86% | residual activity [14] 100% | residual activity [15] 100% | residual activity [16] 76% | residual activity [17] 97% | residual activity [18] 100% | residual activity [19] 94% | residual activity [20] 81% | residual activity [21] 90% | residual activity [22] 97% | inhibition [23] 37.5% | residual activity [24] 100% | residual activity [25] 100% | residual activity [26] 76% | residual activity [27] 100% | residual activity [28] 100% | residual activity [29] 93% | residual activity [30] 98% | residual activity [31] 100% | residual activity [32] 90% | residual activity [33] 85% | residual activity [34] 81% | inhibition [35] 29.3% | residual activity [36] 100% | residual activity [37] 80% | residual activity [38] 92% | residual activity [39] 100% | residual activity [40] 100% | residual activity [41] 100% | residual activity [42] 100% | residual activity [43] 100% | residual activity [44] 100% | residual activity [45] 74%

O=C(Nc1cccnn1)N1CC(C/C=C/c2cncc(Oc3ccc(C(F)(F)F)cn3)n2)C1
inactive: residual activity [1] 100% | residual activity [2] 88% | residual activity [3] 100% | residual activity [4] 86% | residual activity [5] 100% | residual activity [6] 90% | residual activity [7] 71% | residual activity [8] 100% | residual activity [9] 98% | residual activity [10] 92% | residual activity [11] 100% | residual activity [12] 67% | residual activity [13] 93% | residual activity [14] 99% | residual activity [15] 77% | residual activity [16] 100% | residual activity [17] 100% | residual activity [18] 100% | residual activity [19] 84% | residual activity [20] 100% | residual activity [21] 100% | residual activity [22] 100% | inhibition [23] 1.18% | residual activity [24] 91% | residual activity [25] 84% | residual activity [26] 100% | residual activity [27] 74% | residual activity [28] 82% | residual activity [29] 87% | residual activity [30] 100% | residual activity [31] 100% | residual activity [32] 100% | residual activity [33] 90% | residual activity [34] 81% | inhibition [35] 4.5% | residual activity [36] 100% | residual activity [37] 100% | residual activity [38] 100% | residual activity [39] 100% | residual activity [40] 100% | residual activity [41] 100% | residual activity [42] 100% | residual activity [43] 95% | residual activity [44] 58% | residual activity [45] 100%
